The values below come from US10583119B2, “Compounds, compositions and methods for making the same” (Signum Biosciences, Inc., priority 2008, dated 2020).

What is called IC50 is the midpoint of a concentration-inhibition curve.

In one experiment the test system is Ob/Ob Mice. Briefly: Non-fasted glucose levels in ob/ob mice. It counts as in vivo. An excerpt:
They are also hypometabolic and hypothermic. The obesity is characterized by an increase in both the number and the size of adipocytes. Although hyperphagia contributes to the obesity, homozygotes gain excess weight and deposit excess fat even when restricted to a diet sufficient for normal weight maintenance in lean mice. Mice heterozygous for the Lep^ob mutation appear like wild-type and are lean.
Forty-eight (48) B6.V-Lep^ob/J mice (00632, The Jackson Laboratory, JAX^6 mice), homozygous for the Lep^ob mutation and thirty six (36) controls B6.V-Lep^ob/J-lean, heterozygous for the Lep^ob mutation were used to study the effect of SIG1012 on non-fasted glucose levels. The mice were ear notched for identification and housed in individually and positively ventilated polycarbonate cages with HEPA filtered air at a density of 3 mice per cage. Bed-o-cob corn cob bedding was used and cages were changed every two weeks. The animal room was lighted entirely with artificial fluorescent lighting, with a controlled 12 h light/dark cycle (7 am to 7 pm light). The normal temperature and relative humidity ranges in the animal rooms were 22±4° C. and 50±15%, respectively. The animal rooms were set to have 15 air exchanges per hour. Filtered tap water, acidified to a pH of 2.8 to 3.2, and LabDiet AIN-76A was provided ad libitum.
Following acclimation, mice were assigned to groups A through G according to their body weight and genotype:
A Lean heterozygotes—B6.V-Lep^ob/J-lean Mice Fed Control Diet (AIN-76A);
B Lean heterozygotes—B6.V-Lep^ob/J-lean Mice Fed “Low” Compound I-63 (AIN-76A with 0.001% Compound I-63);
C Lean heterozygotes—B6.V-Lep^ob/J-lean Mice Fed “Medium” Compound I-63 (AIN-76A with 0.1% Compound I-63);
D Obese homozygotes—B6. V-Lep^ob/J Mice Fed Control Diet (AIN-76A);
E Obese homozygotes—B6N-Lep^ob/J Mice Fed “Low” Compound I-63 (AIN-76A with 0.001% Compound I-63); […]
Mice from Groups A through G were maintained on the respective diet for 14 days and blood glucose levels were measured weekly.

Experiment [1] concerns the target T1, protein phosphatase 2A specific methyltransferase (MTase) (Homo sapiens, UniProt Q9UIC8).
T1 construct: His; made in house
Description: PP2A methylation in 96-well plate format (methyltransferase activity). It counts as biochemical. The conditions noted are these: purified PP2A, MTase and [3H]-SAM; read-out: MT (IC50). As for the experimental part: Purified PP2A, MTase and [^3H]-SAM, were incubated in reaction buffer at 37° C. At the end of the reaction, mixture was added onto the membranes of 96-well filter plate (Multiscreen™, Millipore). The membranes were then pre-wetted with 70% ethanol (50 μL/well) and then subsequently washed with water (2×200 μL/well). The reaction in each well was terminated and the proteins (5 μL-20 μL) were precipitated by adding 25% ice-cold TCA. The plate was kept on ice for 30 minutes to ensure completion of protein precipitation. Excess of the free SAM was then removed by washing with 5% cold TCA ([…]) and 70% cold ethanol (2×100 μL/well). Membranes were air-dried, radioactivity in each well was counted by TopCount^NXT scintillation counter (Packard) with 25 μL/well of Microsinct™ 20 (PerkinElmer).

T1 sequence (Q9UIC8 whole entry): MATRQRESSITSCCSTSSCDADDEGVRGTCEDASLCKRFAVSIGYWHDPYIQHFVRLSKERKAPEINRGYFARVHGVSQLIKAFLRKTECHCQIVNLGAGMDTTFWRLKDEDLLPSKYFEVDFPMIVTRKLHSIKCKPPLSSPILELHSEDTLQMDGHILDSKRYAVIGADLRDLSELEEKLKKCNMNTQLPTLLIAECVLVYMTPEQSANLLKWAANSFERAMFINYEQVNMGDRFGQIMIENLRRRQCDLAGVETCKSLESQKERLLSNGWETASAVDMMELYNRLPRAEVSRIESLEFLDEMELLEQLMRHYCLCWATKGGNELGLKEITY

For the compound `CCCCCCCCCCCCCCCCCCCC(=O)NCCc1c[nH]c2ccc(O)cc12` [Compound I-63, N-(2-(5-hydroxy-1H-indol-3-yl)ethyl)icosanamide], the “effect on non-fasted blood glucose levels” value with Ob/Ob Mice (heterozygous lean mice control) is “No effect”. The “reduction in non-fasted blood glucose levels” value in the experiment with Ob/Ob Mice (homozygous obese mice, compound in diet for 14 days) is 26-30%. For the same compound, the IC50 in experiment [1] is 10 to 100 µM.
